Test results as given in patent US8884013B2, “Polymorphs of Dasatinib, preparation methods and pharmaceutical compositions thereof” (Nan Jing Cavendish Bio-Engineering Technology Co., Ltd., priority 2010, dated 2014).

Test: Comparative test on stability: destruction experiment, related substances by HPLC
Type: physicochemical
Protocol: The methods of destruction experiment of the Polymorph I and II of this invention (hereinafter referred to as ‘Polymorph I’ and ‘Polymorph II’) contrasting with the Polymorph A of Dasatinib prepared by the method in CN200580011916.6 (hereinafter referred to as ‘916.6 Polymorph A’) and results of stability are followed:
Oxidation destruction: 50 mg of sample weighted accurately was added into measuring flask of 100 mL, and 10 mL 30% H2O2 was added. After standing at room temperature for 2 hour, the mixture was diluted with mobile phase to scale and shook to be homogeneous, and determined by HPLC.
Acid destruction: 50 mg of sample weighted accurately was added into measuring flask of 100 mL, and 10 mL 1 mol/L HCl solution was added. After standing at 40° C. for 1 hour, an equal amount of 1 mol/L NaOH solution was added for neutralization. Then the mixture was diluted with mobile phase to scale and shook to be homogeneous, and determined by HPLC.
Alkali destruction: 50 mg of sample weighted accurately was added into measuring flask of 100 mL, and 10 mL 1 mol/L NaOH solution was added. After standing at 40° C. for 1 hour, an equal amount of 1 mol/L HCl solution was added for neutralization. Then the mixture was diluted with mobile phase to scale and shook to be homogeneous, and determined by HPLC.
Illumination destruction: 50 mg of sample weighted accurately was added into measuring flask of 100 mL, dissolved and diluted with mobile phase to be the solution containing 0.5 mg Dasatinib per milliliter. After standing under illumination of 4000 lx for 6 hour, the mixture was determined by HPLC.
High temperature destruction: 50 mg of sample weighted accurately was added into measuring flask of 100 mL, dissolved and diluted with mobile phase to be the solution containing 0.5 mg Dasatinib per milliliter. After standing in homothermal water bath of 60° C. for 4 hour, the mixture was cooled and then determined by HPLC.
Related Substances Determination
HPLC conditions and system applicability: octadecylsilane bonded silica as the filler; 0.05 mol/L of potassium dihydrogen phosphate (adjusted to pH 2.5 by phosphoric acid, 0.2% triethylamine)-methanol (45:55) as the mobile phase; detection wavelength was 230 nm; the number of theoretical plates should be not less than 2000, calculated according to the peak of Dasatinib. The resolution of the peak of Dasatinib from the peaks of adjacent impurities should meet requirements.
Determination method: sample was dissolved in mobile phase to be the solution containing 0.5 mg per milliliter. 20 μL of such solution was injected into liquid chromatograph, and chromatogram was recorded until the sixfold retention time of major component peak. If there were impurities peaks in the chromatogram of sample solution, total impurities and any single impurity were calculated by normalization method on the basis of peak area.

Cc1nc(Nc2ncc(C(=O)Nc3c(C)cccc3Cl)s2)cc(N2CCN(CCO)CC2)n1 [916.6 Polymorph A, N-(2-chloro-6-methylphenyl)-2-[[6-[4-(2-hydroxyethyl)-1-piperazinyl]-2-methyl-4-pyrimidyl]amino]-5-thiazolformamide, reference compound]
Stability by comparison with Polymorph I: worse performance in stability
Impurity tR3.580 (1 mol/L acid destruction): 0.01%
Impurity tR4.106 (1 mol/L acid destruction): 0.02%
Impurity tR5.001 (1 mol/L acid destruction): 0.02%
Total impurities (1 mol/L acid destruction (HCl, 40° C., 1 hour)): 0.06%
Impurity tR4.107 (1 mol/L alkali destruction): 0.01%
Impurity tR5.007 (1 mol/L alkali destruction): 0.03%
Impurity tR5.351 (1 mol/L alkali destruction): 0.03%
Impurity tR8.943 (1 mol/L alkali destruction): 0.01%
Total impurities (1 mol/L alkali destruction (NaOH, 40° C., 1 hour)): 0.11%
Impurity tR4.135 (before destruction): 0.02%
Impurity tR5.092 (before destruction): 0.02%
Impurity tR5.523 (before destruction): 0.03%
Total impurities (before destruction): 0.07%
Impurity tR4.118 (high temperature destruction): 0.02%
Impurity tR5.081 (high temperature destruction): 0.03%
Impurity tR5.502 (high temperature destruction): 0.03%
Total impurities (high temperature destruction (60° C. water bath, 4 hour, in solution)): 0.08%
Impurity tR2.456 (illumination destruction): 0.30%
Impurity tR3.732 (illumination destruction): 0.14%
Impurity tR4.589 (illumination destruction): 0.11%
Impurity tR5.088 (illumination destruction): 0.06%
Impurity tR5.503 (illumination destruction): 0.19%
Impurity tR10.095 (illumination destruction): 0.82%
Total impurities (illumination destruction (4000 lx, 6 hour, in solution)): 1.89%
Impurity tR4.123 (oxidation destruction): 0.01%
Impurity tR4.584 (oxidation destruction): 0.02%
Impurity tR5.089 (oxidation destruction): 0.02%
Impurity tR5.504 (oxidation destruction): 0.05%
Impurity tR9.450 (oxidation destruction): 2.30%
Total impurities (oxidation destruction (30% H2O2, room temperature, 2 hour)): 2.41%
